According to patent US11912670B1, “Ethyl 4-(5-(3-fluorophenyl)-4-phenyl-4H-1,2,4-triazol-3-ylthio)butanoate as an antimicrobial compound” (KING FAISAL UNIVERSITY, priority 2023, dated 2024):

Legend:
Format in all cases: cell-based
Bacillus cereus = test: Agar plate disc-diffusion, antibacterial (gram positive); settings: nutrient agar, 37° C., 48 hours, DMSO control zone subtracted
Procedure: (§1) The agar plate disc-diffusion method was applied. […] The discs were then placed onto the surface of agar plates (nutrient agar for bacteria and Sabouraud's dextrose agar for fungi) seeded with the test organism. Each plate contained 15 mL of the agar medium, previously seeded with 0.2 mL of the broth culture of each organism pregrown for 18 hours. The plates were incubated at 37° C. for 48 hours, and 72 hours for fungi. The inhibition zones were measured in mm. Discs impregnated with DMSO were used as a control, and its inhibition zone was subtracted from the tested compound actual inhibition zone.

Staphylococcus aureus = test: as above; settings: nutrient agar, 37° C., 48 hours, DMSO control zone subtracted
Procedure: as §1

Aspergillus flavus = test: Agar plate disc-diffusion, antifungal; settings: Sabouraud's dextrose agar, 72 hours, DMSO control zone subtracted
Procedure: as §1

[1] = system: Chrysosporium keratinophilum; test: Agar plate disc-diffusion, antifungal; settings: Sabouraud's dextrose agar, 72 hours, DMSO control zone subtracted
Procedure: as §1

Pseudomonas aeruginosa = test: Agar plate disc-diffusion, antibacterial (gram negative); settings: nutrient agar, 37° C., 48 hours, DMSO control zone subtracted
Procedure: as §1

Escherichia coli = test: as above; settings: nutrient agar, 37° C., 48 hours, DMSO control zone subtracted
Procedure: as §1

[2] = A = concentration of comp. = 10,000 μL
[3] = B = concentration of comp. = 30,000 μL
[4] = C = concentration of comp. = 50,000 μL

## CCOC(=O)CCCSc1nnc(-c2cccc(F)c2)n1-c1ccccc1 [III, ethyl 4-(5-(3-fluorophenyl)-4-phenyl-4H-1,2,4-triazol-3-ylthio)butanoate]
Bacillus cereus; [2]
  inhibition zone, Bacillus Cereus, A: 27 mm
Bacillus cereus; [3]
  inhibition zone, Bacillus Cereus, B: 29 mm
Bacillus cereus; [4]
  inhibition zone, Bacillus Cereus, C: 40 mm
Staphylococcus aureus; [2]
  inhibition zone, Staphylococcus aureus, A: 18 mm
Staphylococcus aureus; [3]
  inhibition zone, Staphylococcus aureus, B: 25 mm
Staphylococcus aureus; [4]
  inhibition zone, Staphylococcus aureus, C: 30 mm
Aspergillus flavus; [2]
  inhibition zone, Aspergillus flavus, A: 26 mm
Aspergillus flavus; [3]
  inhibition zone, Aspergillus flavus, B: 28 mm
Aspergillus flavus; [4]
  inhibition zone, Aspergillus flavus, C: 40 mm
[1]; A = concentration of comp. = 10,000 μg/mL
  inhibition zone, Chrysosporium keratinophilum, A: 25 mm
[1]; [3]
  inhibition zone, Chrysosporium keratinophilum, B: 28 mm
[1]; [4]
  inhibition zone, Chrysosporium keratinophilum, C: 48 mm
Pseudomonas aeruginosa; [2]
  inhibition zone, Pseudomonas aeruginosa, A: 25 mm
Pseudomonas aeruginosa; [3]
  inhibition zone, Pseudomonas aeruginosa, B: 29 mm
Pseudomonas aeruginosa; [4]
  inhibition zone, Pseudomonas aeruginosa, C: 46 mm
Escherichia coli; [2]
  inhibition zone, Escherichia coli, A: 22 mm
Escherichia coli; [3]
  inhibition zone, Escherichia coli, B: 29 mm
Escherichia coli; [4]
  inhibition zone, Escherichia coli, C: 42 mm
